# Assay results taken from ChEMBL document CHEMBL3804794, “Design, synthesis and biological evaluation of pyrazol-furan carboxamide analogues as novel Akt kinase inhibitors” (Eur J Med Chem, 2016).
# What was measured:
# [1] = Antiproliferative activity against human HCT116 cells after 72 hrs by SRB assay; assay type: functional, cell-based; conditions: HCT-116, 72 h
# [2] = Antiproliferative activity against human OVCAR8 cells after 72 hrs by SRB assay; assay type: functional, cell-based; conditions: OVCAR-8, 72 h
# [3] = target: T1, RAC-alpha serine/threonine-protein kinase (Homo sapiens, UniProt P31749); test: Inhibition of Akt1 (unknown origin) expressed in Escherichia coli using peptide substrate after 1 hr by HTRF assay
# [4] = Inhibition of PKA (unknown origin) after 60 mins by Z-LYTE kinase assay; design: species or system Homo sapiens
# [5] = target: T2, Testis-specific serine/threonine-protein kinase 1 (Mus musculus, UniProt Q61241); test: Inhibition of mouse TSSK1 by luminescent ADP-Glo assay kit
# T2 sequence (Q61241 whole entry): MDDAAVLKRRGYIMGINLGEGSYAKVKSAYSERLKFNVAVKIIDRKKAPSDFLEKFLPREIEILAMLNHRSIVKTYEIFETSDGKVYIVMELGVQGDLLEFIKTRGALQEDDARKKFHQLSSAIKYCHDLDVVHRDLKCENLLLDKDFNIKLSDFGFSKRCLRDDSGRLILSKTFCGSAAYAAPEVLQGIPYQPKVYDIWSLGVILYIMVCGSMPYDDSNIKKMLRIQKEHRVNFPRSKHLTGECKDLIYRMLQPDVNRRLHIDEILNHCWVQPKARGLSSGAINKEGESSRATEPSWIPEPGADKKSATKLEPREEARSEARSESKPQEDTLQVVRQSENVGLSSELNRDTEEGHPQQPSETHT
# [6] = target: T1, RAC-alpha serine/threonine-protein kinase; test: Inhibition of Akt1 (unknown origin) expressed in Escherichia coli at 1 ug/ml using peptide substrate after 1 hr by HTRF assay
# [7] = Effect on total Akt levels in human PC3 cells at 1 to 10 uM after 3 hrs by western blot analysis; assay type: ADME, cell-based; conditions: pc-3, 3 h
# [8] = Effect on total GSK3beta levels in human PC3 cells at 1 to 10 uM after 3 hrs by western blot analysis; assay type: ADME, cell-based; conditions: pc-3, 3 h
# [9] = Inhibition of Akt in human PTEN-null LNCAP cells assessed as suppression in PRAS40 phosphorylation after 1 hr by ELISA analysis; assay type: cell-based
# [10] = Effect on total GAPDH levels in human PC3 cells at 1 to 10 uM after 3 hrs by western blot analysis; assay type: ADME, cell-based; conditions: pc-3, 3 h
# T1 sequence (P31749 whole entry): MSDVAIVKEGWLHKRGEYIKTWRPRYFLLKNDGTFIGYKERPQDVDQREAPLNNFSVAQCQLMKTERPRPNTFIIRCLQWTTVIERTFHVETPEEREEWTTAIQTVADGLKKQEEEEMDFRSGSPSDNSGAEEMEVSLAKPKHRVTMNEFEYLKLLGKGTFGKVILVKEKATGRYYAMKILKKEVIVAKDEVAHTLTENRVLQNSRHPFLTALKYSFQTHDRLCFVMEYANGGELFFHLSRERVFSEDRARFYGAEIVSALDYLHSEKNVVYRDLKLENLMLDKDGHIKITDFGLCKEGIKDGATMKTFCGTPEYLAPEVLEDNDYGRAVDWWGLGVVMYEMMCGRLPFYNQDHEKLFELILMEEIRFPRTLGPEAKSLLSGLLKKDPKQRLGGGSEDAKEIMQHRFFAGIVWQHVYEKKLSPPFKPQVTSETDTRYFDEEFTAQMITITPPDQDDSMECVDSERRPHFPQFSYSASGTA
SMILES,IC50 [3] [nM],IC50 [1] [µM],IC50 [2] [µM],further results
Cn1ncc(Cl)c1-c1ccc(C(=O)NC2(c3ccc(Cl)c(Cl)c3)CCNCC2)cc1,1910,11.9,5.21,–
CN[C@@H]1C[C@H]2O[C@@](C)([C@@H]1OC)n1c3ccccc3c3c4c(c5c6ccccc6n2c5c31)C(=O)NC4 [STAUROSPORINE],–,–,–,IC50 [4]: 8.2 nM; IC50 [5]: 0.33 nM
Cn1ncc(Br)c1-c1oc(C(=O)NC2(c3ccc(Cl)c(Cl)c3)CCNCC2)cc1Br,–,16.4,5.81,inhibition [6]: 43.5%
Cn1ncc(Cl)c1-c1c(Cl)c(C(=O)NC2(c3ccc(Cl)c(Cl)c3)CCNCC2)n(C)c1Cl,850,9.28,1.77,–
Cn1ncc(Cl)c1-c1cc(C(=O)NC2(c3ccc(Cl)c(Cl)c3)CCNCC2)oc1Cl,61,7.76,9.76,Activity [7]: Non-toxic; Activity [8]: Non-toxic; IC50 [9]: 30.4 nM; Activity [10]: Non-toxic
NC1(C(=O)N[C@@H](CCO)c2ccc(Cl)cc2)CCN(c2nc[nH]c3nccc2-3)CC1 [CAPIVASERTIB],–,5.2,7.27,IC50 [9]: 337 nM
Cn1ncc(Br)c1-c1cc(C(=O)NC2(c3ccc(Cl)c(Cl)c3)CCNCC2)n(C)c1Br,–,7.75,4.7,inhibition [6]: 30.3%
Cn1ncc(Cl)c1-c1csc(C(=O)NC2(c3ccc(F)cc3)CCNCC2)c1,320,18.3,8.19,–
Cn1nccc1-c1oc(C(=O)NC2(c3ccc(Cl)c(Cl)c3)CCNCC2)cc1Br,–,24.8,6.87,inhibition [6]: 49.4%
Cn1nccc1-c1csc(C(=O)NC2(c3ccc(F)cc3)CCNCC2)c1,920,24.8,14.3,–
Cn1nccc1-c1csc(C(=O)NC2(c3ccc(Cl)c(Cl)c3)CCNCC2)c1,71,3.92,1.61,–
Cn1ncc(Cl)c1-c1cc(C(=O)N[C@H](CN)Cc2ccc(F)c(F)c2)oc1Cl [UPROSERTIB],–,–,–,IC50 [9]: 75.6 nM
Cn1ncc(Cl)c1-c1cc(C(=O)NC2(c3ccc(F)cc3)CCNCC2)oc1Cl,390,6.47,4.81,–
Cn1ncc(Br)c1-c1csc(C(=O)NC2(c3ccc(F)cc3)CCNCC2)c1,360,17.5,7.78,–
Cn1ncc(Cl)c1-c1coc(C(=O)NC2(c3ccc(F)cc3)CCNCC2)c1,920,10.1,6.46,–

# Continued, in another order:
IC50 [3] [nM],SMILES,IC50 [1] [µM],IC50 [2] [µM],further results
1400,Cn1ncc(Br)c1-c1ccc(C(=O)NC2(c3ccc(Cl)c(Cl)c3)CCNCC2)cc1,11,1.96,–
2020,Cn1ncc(Br)c1-c1coc(C(=O)NC2(c3ccc(F)cc3)CCNCC2)c1,18.1,20.1,–
440,Cn1ncc(Br)c1-c1coc(C(=O)NC2(c3ccc(Cl)c(Cl)c3)CCNCC2)c1,4,3.77,–
1260,Cn1cc(-c2c(Br)cnn2C)cc1C(=O)NC1(c2ccc(Cl)c(Cl)c2)CCNCC1,12.9,2.83,–
1480,Cn1ncc(Cl)c1-c1oc(C(=O)NC2(c3ccc(Cl)c(Cl)c3)CCNCC2)cc1Br,6.97,5.95,–
